In patent US20260078099A1, “COMPOUND, PREPARATION METHOD THEREOF, AND LIPID NANOPARTICLE AND PHARMACEUTICAL COMPOSITION” (priority 2023, published 2026):

Key:
mice = assay: Bioluminescent study, intramuscular injection of F-luc mRNA LNPs; format: in vivo; details: F-luc luminescence flux normalized to MC3; 0.25 mg/kg intramuscular, mice n=3, 6-hour time point
Protocol: The efficacy of nanoparticle compositions was evaluated using bioluminescent studies. A dose of 0.25 mg/kg (mpk) of the formulation was administered to mice (n=3) via intramuscular injection, and bioluminescence was measured at a 6-hour time point. The test lipid nanoparticles from the MC3 formulation were evaluated, and in some cases, controls (e.g., PBS controls) were assessed for comparison.
The characteristics of the test lipid nanoparticles measured from the test groups, including F-luc luminescence intensity, are listed in the table below.

LNP zeta potential = format: physicochemical; details: mRNA LNP
From the text: Nanoparticle compositions can be characterized by various methods. For example, the morphology and size distribution of nanoparticle compositions can be examined using microscopy (e.g., transmission electron microscopy or scanning electron microscopy). The zeta potential can be measured using dynamic light scattering or potentiometric titration. Dynamic light scattering can also be used to determine particle size. Instruments such as the Zetasizer Nano ZS (Malvern Instruments Ltd., Malvern, Worcestershire, UK) can also be used to measure multiple characteristics of nanoparticle compositions, such as particle size, polydispersity index, and zeta potential.
[…]: The zeta potential of the nanoparticle composition can indicate the electrophoretic potential of the composition. For example, zeta potential may describe the surface charge of the nanoparticle composition. Nanoparticle compositions with relatively low positive or negative charges are generally desirable, as materials with higher charges may interact undesirably with cells, tissues, and other components in the body. In some embodiments, the zeta potential of the nanoparticle composition may be about −10 mV to about +20 mV, about −10 mV to about +15 mV, about −10 mV to about +10 mV, about −10 mV to about +5 mV, about −10 mV to about 0 mV, about −10 mV to about −5 mV, about −5 mV to about +20 mV, about −5 mV to about +15 mV, about −5 mV to about +10 mV, about −5 mV to about +5 mV, about −5 mV to about 0 mV, about 0 mV to about +20 mV, about 0 mV to about +15 mV, about 0 mV to about +10 mV, about 0 mV to about +5 mV, about +5 mV to about +20 mV, about +5 mV to about +15 mV, or about +5 mV to about +10 mV.

[1] = LNP size and PDI by dynamic light scattering; format: physicochemical; details: mRNA LNP, cationic lipid/DSPC/cholesterol/PEG-lipid 50:10:38.5:1.5
Protocol: (§1) In summary, the cationic lipid described herein, DSPC, cholesterol, and PEG-lipid were dissolved in ethanol at a molar ratio of 50:10:38.5:1.5 and diluted in 10 mM to 50 mM citrate buffer at pH 4 with mRNA. Using a microfluidic device, the lipid ethanol solution was mixed with mRNA aqueous solution at a volume ratio of 1:3 and a total flow rate ranging from 6-30 mL/min, preparing LNPs with a total lipid to mRNA weight ratio of approximately 10:1 to 30:1. Ethanol was removed by dialysis and replaced with PBS. Finally, the lipid nanoparticles were filtered through a 0.22 μm sterile filter.
(§2) The size of lipid nanoparticles was measured by dynamic light scattering using a Malvern Zetasizer Nano ZS (Malvern, UK) with a 90° scattering detection mode. The encapsulation efficiency of lipid nanoparticles was determined using the Quant-it Ribogreen RNA Quantitation Kit (Thermo Fisher Scientific, UK) according to the manufacturer's instructions. The apparent pKa of LNP formulations correlates with the delivery efficiency of nucleic acids by LNPs in vivo. The apparent pKa ranges from approximately 5 to 7. An analysis based on fluorescence from 2-(p-tolylamino)-6-naphthalenesulfonic acid (TNS) was used to determine the apparent pKa of formulations. As described above, LNP formulations containing cationic lipid/DSPC/cholesterol/DMG-PEG (50/10/38.5/1.5 mol %) in PBS were prepared. A 300 μM stock solution of TNS in distilled water was prepared. LNP formulations were diluted to 0.1 mg/mL total lipid in 3 mL of buffer solution containing 50 mM sodium citrate, 50 mM sodium phosphate, 50 mM sodium borate, and 30 mM sodium chloride (pH ranged from 3 to 9). […] S-shaped curve best-fit analysis was applied to the fluorescence data, and the pKa value was measured as the pH value producing half-maximal fluorescence intensity.

[2] = LNP encapsulation efficiency (Quant-it Ribogreen); format: physicochemical; details: mRNA LNP, cationic lipid/DSPC/cholesterol/PEG-lipid 50:10:38.5:1.5
From the text: Encapsulation Efficiency: The encapsulation efficiency of a therapeutic and/or prophylactic agent refers to the amount of the therapeutic and/or prophylactic agent encapsulated within or otherwise associated with the nanoparticle composition relative to the initial amount provided during preparation. Encapsulation efficiency is desirably high (such as close to 100%). Encapsulation efficiency can be measured, for example, by comparing the amount of therapeutic and/or prophylactic agent in a solution containing the nanoparticle composition before and after disruption of the nanoparticle composition using one or more organic solvents or detergents. Fluorescence can be used to measure the amount of free therapeutic and/or prophylactic agent (e.g., RNA) in solution. For the nanoparticle compositions described herein, the encapsulation efficiency of the therapeutic and/or prophylactic agent may be at least 50%, such as 50%, 55%, 60%, 65%, 70%, 75%, 80%, 85%, 90%, 91%, 92%, 93%, 94%, 95%, 96%, 97%, 98%, 99%, or 100%. In some embodiments, the encapsulation efficiency may be at least 80%. In certain embodiments, the encapsulation efficiency may be at least 90%.
as §1, §2

Row | SMILES | Zeta potential (mV) (LNP zeta potential) | PDI [1] | Size (nm) [1] [nm] | Encapsulation efficiency (%) [2] [%] | Relative Total flux (mice)
1 | CCCCCCCCC(C(=O)NCCCCCCCCCC(=O)OCC12CC3CC(CC(C3)C1)C2)N(CCCN1CCCC1)C(=O)CCCCCCCCCC(=O)OC(CCCCCC)CCCCCC (stereo not shown) [Compound A8] | −19.03 | 0.16 | 66.98 | 92.88 | D (D: <0.1.)
2 | CCCCCCCC(C(=O)NCCCCCCCCCC(=O)OC(CCCCCC)CCCCCC)N(CCCN1CCCC1)C(=O)CCCCCCCCCC(=O)OCC1CC=CCC1 (stereo not shown) [Compound A9] | −18.67 | 0.191 | 64.58 | 93.54 | D (D: <0.1.)
3 | CCCCCCCCC(C(=O)NCCCCCCCCCC(=O)OCC1CC=CCC1)N(CCCN1CCCC1)C(=O)CCCCCCCCCC(=O)OC(CCCCCC)CCCCCC (stereo not shown) [Compound A10] | −3.45 | 0.415 | 61.16 | 54.08 | A (A: ≥2)
4 | CCCCCCCCC(C(=O)NCCCCCCCCCC(=O)OC(CCCCCC)CCCCCC)N(CCCN(C)C)C(=O)CCCCCCCCCC(=O)OC(CCCCCC)CCCCCC (stereo not shown) [Compound A11] | −2.89 | 0.075 | 225.6 | 71.39 | D (D: <0.1.)
5 | CCCCCCCC(C(=O)NCCCCCCCCCC(=O)OC(CCCCCC)CCCCCC)N(CCCN(C)C)C(=O)CCCCCCCCCC(=O)OC(CCCCCC)CCCCCC (stereo not shown) [Compound A12] | −9.55 | 0.207 | 63.48 | 24.84 | C (C: ≥0.1 and <1)
6 | CCCCCCCCC(C(=O)NCCCCCCCCCC(=O)OC(CCCC)CCCCCC)N(CCCN(C)C)C(=O)CCCCCCCCCC(=O)OC(CCCC)CCCCCC (stereo not shown) [Compound A13] | 2.90 | 0.157 | 118.5 | 94.62 | B (B: ≥1 and <2)
7 | CCCCCCCCC(CCCCCC)COC(=O)CCCCCCCCCNC(=O)C(CCCCCCCC)N(CCCN(C)C)C(=O)CCCCCCCCCC(=O)OCC(CCCCCC)CCCCCCCC (stereo not shown) [Compound A14] | 4.02 | 0.228 | 89.33 | 94.31 | C (C: ≥0.1 and <1)
8 | CCCCCCCCC(C(=O)NCCCCCCCCCC(=O)OCCCCCC)N(CCCN(C)C)C(=O)CCCCCCCCCC(=O)OC(CCCCCC)CCCCCC (stereo not shown) [Compound A15] | 4.75 | 0.251 | 113.2 | 93.95 | A (A: ≥2)
9 | CCCCCCCCC(C(=O)NCCCCCCCCCC(=O)OCCCCCC)N(CCCN(C)C)C(=O)CCCCCCCCCC(=O)OCCCCCC (stereo not shown) [Compound A16] | 0.78 | 0.183 | 78.42 | 41.55 | C (C: ≥0.1 and <1)
10 | CCCCCCCC(C(=O)NCCCCCCCCCC(=O)OC(CCCCCC)CCCCCC)N(CCCN(C)C)C(=O)CCCCCCCCCC(=O)OCC12CC3CC(CC(C3)C1)C2 (stereo not shown) [Compound A17] | −0.68 | 0.07 | 60.77 | 53.24 | D (D: <0.1.)
11 | CCCCCCCCC(C(=O)NCCCCCCCCCC(=O)OCC12CC3CC(CC(C3)C1)C2)N(CCCN(C)C)C(=O)CCCCCCCCCC(=O)OC(CCCCCC)CCCCCC (stereo not shown) [Compound A18] | −15.20 | 0.136 | 78.14 | 87.17 | D (D: <0.1.)

Second part, led by results:

Row | Zeta potential (mV) (LNP zeta potential) | PDI [1] | Size (nm) [1] [nm] | Encapsulation efficiency (%) [2] [%] | SMILES | Relative Total flux (mice)
12 | −0.20 | 0.093 | 78.64 | 89.13 | CCCCCCCC(C(=O)NCCCCCCCCCC(=O)OC(CCCCCC)CCCCCC)N(CCCN(C)C)C(=O)CCCCCCCCCC(=O)OCC1CC=CCC1 (stereo not shown) [Compound A19] | D (D: <0.1.)
13 | 17.70 | 0.113 | 93.07 | 60.65 | CCCCCCCCC(C(=O)NCCCCCCCCCC(=O)OCC1CC=CCC1)N(CCCN(C)C)C(=O)CCCCCCCCCC(=O)OC(CCCCCC)CCCCCC (stereo not shown) [Compound A20] | D (D: <0.1.)
14 | 11.03 | 0.071 | 95.73 | 54.53 | CCCCC/C=C\C/C=C\CCCCCCCC(=O)N(CCCN1CCCC1)CC(=O)NCCCCCCCCCCCCCC [Compound A21] | C (C: ≥0.1 and <1)
15 | −3.43 | 0.11 | 121.37 | 95.33 | CCCCCCCCNC(=O)C(CCCC)N(CCCN(C)C)C(=O)CCCCCCC(=O)OC(CCCCCCCC)CCCCCCCC (stereo not shown) [Compound A27] | A (A: ≥2)
16 | −0.41 | 0.15 | 88.05 | 85.93 | CCCCCCCCNC(=O)C(CCCCC)N(CCCN(C)C)C(=O)CCCCCCC(=O)OC(CCCCCCCC)CCCCCCCC (stereo not shown) [Compound A28] | A (A: ≥2)
17 | −1.24 | 0.09 | 94.71 | 94.69 | CCCCCCCCNC(=O)C(CCCCCC)N(CCCN(C)C)C(=O)CCCCCCC(=O)OC(CCCCCCCC)CCCCCCCC (stereo not shown) [Compound A29] | A (A: ≥2)
18 | 0.47 | 0.12 | 86.87 | 96.65 | CCCCCCCCNC(=O)C(CCCCCCC)N(CCCN(C)C)C(=O)CCCCCCC(=O)OC(CCCCCCCC)CCCCCCCC (stereo not shown) [Compound A30] | B (B: ≥1 and <2)
19 | −4.31 | 0.22 | 79.94 | 97.50 | CCCCCCCCNC(=O)CCCCCNC(=O)C(CCCCCCCC)N(CCCN(C)C)C(=O)CCCCCC(=O)NC(CCCCCCC)CCCCCCC (stereo not shown) [Compound A31] | B (B: ≥1 and <2)
20 | 1.89 | 0.13 | 85.33 | 95.33 | CCCCCCCCNC(=O)C(CCCCCCCC)N(CCCN(C)C)C(=O)CCCCCC(=O)NC(CCCCCCC)CCCCCCC (stereo not shown) [Compound A32] | B (B: ≥1 and <2)
